Reference: patent US7320995B2, “Benzimidazoles and benzothiazoles as inhibitors of map kinase” (Eli Lilly and Company, priority 2002, dated 2008)

Columns and labels:
[1] = Rat collagen induced arthritis efficacy model; format: in vivo, female Lewis rats
Description: Female Lewis rats ((≅190 gm, Charles River Labs) are immunized with Bovine type II collagen (2 mg/ml) emulsified with an equal volume of adjuvant (aluminum hydroxide). […]. The rats are immunized with approximately […] of the emulsion intradermally on the back near the base of the tail. All animals are re-immunized 7 days later according to the same protocol. The rats begin to develop arthritis (characterized by swelling and redness of one or both ankles) from 12 to 14 days after the first immunization. The rats are equally distributed into five treatment groups at the first signs of arthritis and treatment is initiated with each rat dosed bid for 14 days.
• Group 1 Vehicle (1% NaCarboxymethylcellulose+0.25% Tween 80) 1 mL, PO, Bid×14 days • Group 2 Example 77 (free base), 5 mg/kg, 1 mL, PO, Bid×14 • Group 3 Example 77 (free base), 15 mg/kg, 1 mL, PO, Bid×14 • Group 4 Example 77 (free base), 30 mg/kg, 1 mL, PO, Bid×14 • Group 5 Prednisolone 10 mg/kg, 1 mL, PO, qd×14
Ankle diameter is measured with calipers 5 days a week and recorded. Data is expressed as the area under the curve (AUC) generated from the composite inflammation scores and statistical analysis performed.
At the termination of the study, animals were sacrificed and ankles processed for histological evaluation. […]

[2] = system: TNF-α production in mouse peritoneal macrophages; experiment: Inhibition of TNF-α in vitro, mouse peritoneal macrophages, Luminex; format: cell-based; conditions: Peritoneal macrophage; LPS and interferon-γ stimulated mouse peritoneal macrophages, 18 hours; read-out: IC50, suppression of TNF-α in vitro
Description: At day 4 or 5 post-injection the mice are sacrificed and then injected i.p. with 4 mL Dulbecco's phosphate-buffered saline (BioWhittaker) and the peritoneal macrophages are withdrawn by syringe. Mouse peritoneal macrophages are counted with a hemocytometer and adjusted to 2.5×10^6 cells/ml complete media (RPMI-1640 medium containing 10% fetal bovine serum). Cells are plated in 96-well flat-bottom plates at 5×10^5 cells per 200 μl per well and allowed to settle and adhere to the bottom of the well for at least 3 hours. […] (20 μL/well). The cells are then treated with a mixture of 50 ng/L lipopolysaccharide (LPS) and 10 U/mL interferon-γ for 18 hours at 37° C. (20 μL/well). The conditioned media is harvested and assayed for TNF-α production using the Luminex procedure. […] The premixed anti-cytokine conjugated beads are vortexed (25×) vigorously for 30 seconds. The anti-cytokine conjugated beads are diluted to a 1× concentration using 1× Bio-Plex Assay Buffer. For every plate, 240 μL of the pre-mixed beads is added to 5760 μL of Bio-Plex Assay Buffer. […] The blocking buffer is filtered through using a Millipore filtration system and then toweled dry. Two washes are performed on the filter plate with 100 μl/well of Bio-Plex Assay Buffer and toweled dry. The 1× anti-cytokine conjugated beads are vortexed for 15 seconds and added 50 μL to each well. This is filtered through and toweled dry. Two washes are performed on plates with 100 μl/well of Bio-Plex Wash Buffer. Again, it is filtered through and toweled dry. 50 μL of sample or standard is added to each sample well. This is incubated for 60 seconds at room temperature on a shaker protected from light at setting 6 and then for 30 minutes at setting 3 and then placed in the refrigerator overnight. […] Standards and samples are read on a Luminex machine. These intensity readings are then converted to picogram/milliliter units based on a 12-point standard curve created in duplicate using a four-parameter logistic regression method (Bio-Plex Manager, Versions 2.0 and 3.0, Bio-Rad), and the IC50 calculated.

TNF-α = experiment: Effect on intra-articular LPS induced TNF-α (synovial lavage fluid, ELISA); format: in vivo, female Lewis rats; conditions: orally, one hour before intra-articular LPS, lavage after two hours
Description: Intra-articular injection of LPS into rat […] induces the synthesis of TNF-α, which can be measured in synovial lavage fluid. High levels of TNF-α are detectable within 2 hours. Since the joint is the site where arthritis develops, this model can rapidly determine whether an orally administered compound has an effect on an inflammatory response in the synovium.
Six female Lewis rats (150-200 g) are place in each treatment group. The animals are given vehicle (1% NaCarboxymethylcellulose-0.25% Tween 80) or Example 77 (free base) (1 mg/kg, 3 mg/kg, 10 mg/kg, and 30 mg/kg) orally. One hour later, 10 μl LPS (10 μg) is administered intra-articulately into the right ankle of each rat, while the left ankle receives 10 μL of saline. After two hours, each […] is laved with 100 μL of saline. The lavage is collected and stored at −80° C. • Group#1: Vehicle (1% NaCMC-0.25% Tween 80, 1 mL, PO) • Group#2: Example 77 (free base) (1 mg/kg, 1 mLl, PO) • Group#3: Example 77 (free base) (3 mg/kg, 1 mL, PO) • Group#4: Example 77 (free base) (10 mg/kg, 1 mL, PO) • Group#5: Example 77 (free base) (30 mg/kg, 1 mL, PO)
TNF-α was measured with a commercially available ELISA kit (R&D, RTA00). […] The TMED50=10 mg/kg for Example 77 in this assay.

[3] = system: MAPKAPK-2 phosphorylation (p38 MAPK) in B16F10 tumors; experiment: B16F10 target (phosphorylated MAPKAPK-2) studies, immuno-blot of tumors; format: in vivo, C57B16 mice
[4] = system: B16F10 melanoma lung metastases; experiment: Inhibition of B16F10 melanoma lung metastases; format: in vivo, C57B16 mice; conditions: day -1 to 16
Description: The B16F10 melanoma cell line is obtained from the American Type Culture Collection, Rockville, Md. The cells are cultured in RPMI-1640 medium supplemented with 10% fetal calf serum. The cells grown in vitro are harvested during their exponential growth phase by gentle trypsinization, washed twice in medium, and resuspended in serum-free RPMI-1640 medium. The number of monodisperse viable cells is determined using a hemocytometer and adjusted to 1×10^6 cells/mL. Tumor cells are injected intravenously into the tail vein of normal C57B16 mice with an inoculum volume of 0.2 ml containing 200,000 cells. Mice are treated with test compound or vehicle control starting 1 day before i.v. tumor inoculation. Example 77 (free base) is prepared as a suspension formulation in 1% NaCMC/0.25% polysorbate 80 and probe sonicated in an injection volume of 1% body weight (e.g., the 30 mg/kg dose level is prepared at 3 mg/ml and 0.2 cc was administered per 20 gram mouse). Mice are treated orally tid. with the compound at 30, 10, and 3 mg/kg (90, 30, and 9 mg/kg/day) from days −1 through 16 after tumor cell inoculation. Control mice receive the vehicle alone in an identical manner. On day 16, the mice are sacrificed, and the lungs are harvested and fixed in 3% paraformaldehyde. Lung lesions are quantitated by manual counting under a dissecting microscope.
The test compound was tested in the B16F10 melanoma lung metastasis model orally at 3, 10, and 30 mg/kg, tid from one day before to 16 days after i.v. tumor inoculation (total dose 9, 30 and 90 mg/kg/day). The lungs were harvested on day 16 and lung lesions were quantitated.

[5] = system: MAPKAP-K2 phosphorylation in P815 tumors; experiment: In vivo target inhibition study in P815 mastocytoma model; parameters: species or system DBA/2 mice; conditions: single oral dose 30 mg/kg
Description: In vivo target inhibition is determined by measuring the effect of inhibitor treatment on the phosphorylation of MAPKAP-K2 expressed in P815 tumor tissues. Tumors in DBA/2 mice received P815 cells subcutaneous implantation are allowed to grow to a size of 300-500 mg without treatment. Tumor bearing mice are then given oral administration of Example 77 (free base) or vehicle. To investigate time course related target inhibition by Example 77 (free base), tumors are harvested from CO2 sacrificed animals at the indicated times (3 hours, 6 hours, 12 hours, and 18 hours) after compound is dosed at 30 mg/kg. Dose-dependent target inhibition by Example 77 (free base) is investigated by harvesting tumors at 3 hours after orally given different doses of Example 77 (free base) or vehicle. Harvested tumors are immediately snap frozen onto dry ice, pulverized, homogenized and lysed in cooled lysis buffer containing proteinase and phosphatase inhibitors. After centrifugation to remove cell debris, supernatants containing 100 microgram total proteins are resuspended in 2×Tris-Glycin loading buffer and subjected to sodium dodecyl sulfate-polyacrylamide gel electrophoresis (10% Tris-Glycine) under reducing conditions. […] Expression level of phospho-p38 MAP kinase and total p-38 MAP kinase is also monitored by similar western blotting procedure.

P815 tumors = experiment: Inhibition of P815 tumor growth in vivo; parameters: species or system DBA/2 mice
Description: Female(6-8 weeks old) DBA/2 mice (Taconic) are implanted subcutaneously into the hind flank region on day 0 with P815 cells (0.5×10^6 cells in 200 ul of RPMI 1640). P815 tumor cells are purchased from ATCC and are cultured in RPMI 1640 medium, supplemented with glutamine and 10% bovine serum at 37° C. in 5% CO2 cell culture incubator. Tumor-bearing animals are treated with oral administration of Example 77 (free base), at different doses or vehicle with frequency of three times a day started on the day of implantation. Tumor growth is monitored every 2 days by measuring perpendicular diameters. Tumor volume expressed in milligram (mg) is determined as the product of the largest diameter (a) and its perpendicular (b) according to the formula [tumor volume=a×b^2×0.536].

angiogenesis = conditions: J. R. Jackson, et al., 1998; cited from earlier work

For C[C@]12C=CC(=O)C=C1CC[C@@H]1[C@@H]2[C@@H](O)C[C@@]2(C)[C@H]1CC[C@]2(O)C(=O)CO [Prednisolone, reference compound], the “inflammation (ankle diameter)” value ([1]; 10 mg/kg PO qd x 14) was “reduced the inflammation to pre-arthritic levels”.
Work on CC(C)S(=O)(=O)n1c(N)nc2ccc(-c3nc(-c4cccs4)[nH]c3-c3ccccc3)cc21 [Example 1, 1-isopropylsulfonyl-2-amino-6-(2-(thien-2-yl)-5-(phenyl)-imidazol-4-yl)-benzimidazole methanesulfonate] yielded an IC50 [2] of less than 100 nM.
Molecule CC(C)S(=O)(=O)n1c(N)nc2ccc(-c3nc(-c4nccs4)[nH]c3-c3ccccc3)cc21 [Example 17, 1-isopropylsulfonyl-2-amino-6-(2-(thiazol-2-yl)-5-(phenyl)-imidazol-4-yl)-benzimidazole] has an IC50 [2] of less than 100 nM.
For CC(C)S(=O)(=O)n1c(N)nc2ccc(-c3nc(-c4c(F)cccc4F)[nH]c3-c3ccccc3)cc21 [Example 77, 1-isopropylsulfonyl-2-amino-6-(2-(2,6-difluorophenyl)-5-(phenyl)-imidazol-4-yl)-benzimidazole], the “TMED50, inhibition of TNF-α synthesis in synovial lavage fluid” value (TNF-α) was 10 mg/kg, the “time for which p38 MAPK activity was inhibited” value ([3]; 30 mg/kg, time course study) was “up to 9 hours” and the “ANOVA TMED50, inhibition of MAPKAPK-2 phosphorylation” value ([3]; 2.5 hours after p.o. dosing) was 3 mg/kg. The “lowest dose with appreciable inhibition of MAPKAPK-2 phosphorylation” value ([3]; 2.5 hours after p.o. dosing) was 0.3 mg/kg, the “reduction of the phosphorylation level of MAPKAPK-2 in the tumors” value ([3]; doses >30 mg/kg) was greater than 80% and the “inhibition of lung metastasis formation” value ([4]; 3 mg/kg orally tid) was 54%. The “inhibition of lung metastasis formation” value ([4]; 10 mg/kg orally tid) was 73%, the “inhibition of lung metastasis formation” value ([4]; 30 mg/kg orally tid) was 95% and the “maximum reduction in ankle diameter” value ([1]; 30 mg/kg PO bid x 14 days) was 46%. The “earliest time of the inhibitory effect on MAPKAP-K2 phosphorylation” value [5] was 3 h, the “time to which the inhibitory effect on MAPKAP-K2 phosphorylation extended” value [5] was 12 h and the “inhibition of tumor volume” value (P815 tumors; 3 mg/kg oral tid) was 55%. The “inhibition of tumor volume” value (P815 tumors; 30 mg/kg oral tid) was 67%.
In the case of CC(C)S(=O)(=O)n1c(N)nc2ccc(-c3nc(-c4ccncc4)[nH]c3-c3ccccc3)cc21 [Example 16, 1-isopropylsulfonyl-2-amino-6-(2-(pyridin-4-yl)-5-(phenyl)-imidazol-4-yl)-benzimidazole], the IC50 [2] is reported as less than 100 nM.
For Nc1nccc(-c2c(-c3ccc(F)cc3)ncn2C2CCNCC2)n1 [SB22025], the inhibition of angiogenesis (angiogenesis) is given as “has been shown to inhibit angiogenesis”.
